Assay results published in patent US20220071880A1, “METHODS FOR TREATING CUTANEOUS AGING” (Applied Therapeutics, Inc., priority 2019, published 2022).
“Also recorded” adds a separate entry of the source.

Assays:
Type in all cases: cell-based
[1] = system: Cultured human skin cells (keratinocytes); experiment: Cytosolic reactive oxygen species by dihydroethidium (DHE) staining in H2O2-exposed cultured keratinocytes
Description: FIGS. 1A and 1B are fluorescence images of cultured human skin (keratinocytes) that were exposed to H2O2 to cause oxidative stress. The cells were analyzied for cytosolic reactive oxygen species by staining with dihydroethidium (DHE). FIG. 1A depicts the skin cell damage in the presence of H2O2 as assessed by DHE staining, and the presence of cytosolic reactive oxygen species is shown by fluorescence.
(§1) Cultured human skin cells (keratinocytes) were exposed to H2O2, which causes oxidative damage to simulate the aging process, in the presence of Compound A (at 0.18 nM concentration) or vehicle control. The cultured cells were then assessed for cytosolic reactive oxygen species via Dihydroethidium (DHE) staining (FIG. 1A and FIG. 1B) and for mitochondrial stress via Mitosox™ (a fluorgenic dye targeted to mitochondria in live cells and readily oxidized by superoxide to produce fluorescence, ThermoFisher Scientific) staining (FIG. 2A and FIG. 2B).

[2] = system: Cultured human skin cells (keratinocytes); experiment: Mitochondrial oxidative stress by Mitosox staining in H2O2-exposed cultured keratinocytes
Method: FIGS. 2A and 2B are fluorescence images of cultured human skin (keratinocytes) that were exposed to H2O2 to cause oxidative stress. The cells were analyzied for mitochondrial stress by staining with Mitosox. FIG. 2A depicts the skin cell damage in the presence of H2O2 as assessed by Mitosox staining.
as §1

[3] = system: cultured human keritinocytes; experiment: Senescence-associated beta-galactosidase (SA-βgal) expression in H2O2-exposed cultured keratinocytes, cytochemical approach; details: human keratinocytes exposed to H2O2; Compound A at 0.18 nM vs vehicle control
Method: Senescence-associated beta-galactosidase (SA-βgal) is a well-known biomarker of senescent cells in culture and in vivo. Debacq-Chainiaux et al., Nature Protocols 4, 1798-1806 (2009). In additional studies the cultured human keritinocytes that were exposed to H2O2 in the presence of Compound A (at 0.18 nM concentration) or vehicle control were analyzed for expression of SA-βgal using a cytochemical approach.

[4] = same cultured human keratinocyte system, concentration not given
[5] = human keratinocytes exposed to H2O2, Compound A at 0.18 nM vs vehicle control

Structure (SMILES)	H2O2-induced cytosolic reactive oxygen species formation [1, 4]	H2O2-induced mitochondrial oxidative stress [2, 4]	H2O2-induced cytosolic reactive oxygen species formation (DHE fluorescence) [1, 5]	H2O2-induced SA-βgal expression [3]	H2O2-induced mitochondrial oxidative stress (Mitosox fluorescence) [2, 5]
O=C(O)Cc1nn(Cc2nc3cc(C(F)(F)F)ccc3s2)c(=O)c2cscc12 [Compound B]	inhibited H2O2-induced cytosolic reactive oxygen species formation	inhibited H2O2-induced cytosolic reactive oxygen species formation and mitochondrial oxidative stress	–	–	–
O=C(O)Cc1nn(Cc2nc3cc(C(F)(F)F)ccc3s2)c(=O)c2nccnc12 [Compound A]	–	–	attenuated DHE fluorescence; also recorded: attenuated H2O2-induced cytosolic reactive oxygen species formation	inhibited H2O2-induced SA-βgal	reduced Mitisox fluorescence; also recorded: reduced mitochondrial oxidative stress
